{
  "source": "patent US20230132982A1",
  "about": "“USE OF PYRIDO[1,2-A]PYRIMIDINONE COMPOUND IN TREATING LYMPHOMA” (priority 2020, published 2023)",
  "format_in_all_cases": "in vivo, human",
  "key": {"[1]": {"tested_on": "relapsed or refractory lymphoma", "assay": "Clinical trial of tablets of the compound of formula I in relapsed or refractory lymphoma (Example 2)", "parameters": "key to Best efficacy: “Small SD” means that at the time of efficacy evaluation, a lesion shrinks in size compared with a baseline level, but does not meet the criteria for PR", "procedure": "Drug: tablet of the compound of formula I, 1 mg or 5 mg. 2.2 Enrollment Criteria • 1) Unambiguously diagnosed as relapsed or refractory lymphoma by pathology and/or cytology; • 2) Has at least one measurable target lesion other than brain lesions confirmed by imaging in screening phase (evaluated according to the evaluation criteria revised by the Lugano conference, 2014 edition); • 3) Aged 18-75 years; • 4) ECOG (PS) score ≤1; • 5) Expected survival time ≥3 months; • 6) Main organ functions in the screening phase meet the following criteria: Criteria for blood routine examination (no growth factor used or no blood transfusion conducted within 7 days): • Absolute value of neutrophil count (ANC)≥1.5×10^9/L; • Platelet (PLT)≥75×10^9/L; hemoglobin (Hb)≥90 g/L; Criteria for blood biochemical examination: • Alanine transaminase (ALT) and aspartate transferase (AST)≤1.5×ULN (for patients with tumor liver metastasis, ≤3×ULN); • Glycosylated hemoglobin (HbA1c)≤8.5%; • Lipase≤1.5×ULN; • Serum total bilirubin≤1.5×ULN; • Serum creatinine (Cr)≤1.5×ULN; • 7) Doppler ultrasound evaluation: left ventricular ejection fraction (LVEF)≥lower limit of normal (50%); • 8) Female subjects should agree to take contraceptive measures (such as intrauterine devices [IUD], contraceptives or condoms) during the study and for 6 months after the study; serum or urine pregnancy test results should be negative within 7 days before enrollment, and the subjects must not be breastfeeding; male subjects should agree to take contraceptive measures during the study and for 6 months after the study; and • 9) Voluntary participation, written informed consent and good compliance. The efficacy was evaluated according to the revised evaluation criteria of the Lugano conference, 2014 edition. Primary evaluation indexes of efficacy: objective response rate (ORR), i.e., (CR+PR cases)/total cases, including cases of complete response (CR) and partial response (PR). Secondary evaluation indexes of efficacy: progression-free survival (PFS), overall survival (OS), disease control rate (DCR) and duration of response (DOR)."}, "[2]": {"tested_on": "relapsed/refractory mantle cell lymphoma", "assay": "Clinical trial in relapsed/refractory mantle cell lymphoma (Example 3)", "procedure": "(§1) Method of administration: orally administered once daily, 20 mg each time, with 28 consecutive days of administration as one cycle. Drug: tablet of the compound of formula I, 5 mg or 20 mg. […] The efficacy was evaluated according to the revised evaluation criteria of the Lugano conference, 2014 edition. Primary evaluation indexes of efficacy: objective response rate (ORR), i.e., (CR+PR cases)/total cases, including cases of complete response (CR) and partial response (PR). Secondary evaluation indexes of efficacy: progression-free survival (PFS), overall survival (OS), disease control rate (DCR) and duration of response (DOR)."}, "[3]": {"tested_on": "relapsed or refractory FL", "assay": "Clinical trial in relapsed or refractory follicular lymphoma (Example 4)", "procedure": "as §1"}, "[4]": {"tested_on": "relapsed/refractory diffuse large B-cell lymphoma (DLBCL)", "assay": "Clinical trial in relapsed/refractory diffuse large B-cell lymphoma (Example 5)", "settings": "20 mg orally once daily, 21-day cycle", "procedure": "as §1, with “21” for “28”"}, "[5]": {"tested_on": "Chronic lymphocytic leukemia/small lymphocytic lymphoma", "assay": "Clinical trial in small lymphocytic lymphoma or chronic lymphocytic leukemia (Example 6)", "settings": "20 mg orally once daily, 28-day cycle", "procedure": "as §1, with “evaluated with reference” for “evaluated according”, “to IWCLL2008” for “to the revised”, “criteria and the evaluation criteria revised by” for “criteria of”"}, "[6]": {"settings": "20 mg QD dose group, 20 patients"}, "[7]": {"settings": "22 lymphoma patients enrolled, 18 evaluable for efficacy"}, "[8]": {"settings": "Tumor type Lymphoma, 43 patients"}, "[9]": {"settings": "overall conclusion of the trial"}, "[10]": {"settings": "patient R1009, DLBCL, 10 mg/qd, administration cycle C7D28"}, "[11]": {"settings": "patient R1018, FL, 20 mg/bid, administration cycle C2D28"}, "[12]": {"settings": "patient R2008, FL, 10 mg/bid, administration cycle C2D3"}},
  "data": [
    {"smiles": "COc1ncc(-c2ccc3ncc(OCCN(C)C)c(=O)n3c2)cc1NS(=O)(=O)c1ccc(F)cc1Cl", "note": "[compound of formula I]", "values": [
      {"measurement": "ORR", "setting": "[1]; 10 mg/qd and higher-dose group (11/15), 22 patients enrolled", "result": 73, "unit": "%"},
      {"measurement": "adverse event, a grade 3 hyperglycemia", "setting": "[1]; [6]", "result": 1, "unit": "case"},
      {"measurement": "overall safety and tolerance", "setting": "[1]; [6]", "result": "good overall safety and tolerance"},
      {"measurement": "ORR", "setting": "[1]; 20 mg/qd group (4/4), 22 patients enrolled", "result": 100, "unit": "%"},
      {"measurement": "patients achieved CR (best efficacy)", "setting": "[1]; [7]", "result": 2, "unit": "patients"},
      {"measurement": "patients achieved PR (best efficacy)", "setting": "[1]; [7]", "result": 9, "unit": "patients"},
      {"measurement": "ORR", "setting": "[1]; 35 lymphoma patients enrolled, 31 evaluated for efficacy (22/31)", "result": 71, "unit": "%"},
      {"measurement": "major grade 3 adverse event and dose-limiting toxicity (DLT) associated with study drugs", "setting": "[1]; 35 lymphoma patients enrolled, controlled and returned to baseline by withdrawal of drug or symptom-oriented treatment", "result": "hyperglycemia"},
      {"measurement": "ORR", "setting": "[1]; 50 lymphoma patients enrolled, 43 evaluated for efficacy (28/43)", "result": 65, "unit": "%"},
      {"measurement": "ORR, n (%)", "setting": "[1]; Tumor type CLL, 2 patients", "result": "2 (100%) n (%)"},
      {"measurement": "CR, n (%)", "setting": "[1]; Tumor type DLBCL, 8 patients", "result": "2 (25.0%) n (%)"},
      {"measurement": "ORR, n (%)", "setting": "[1]; Tumor type DLBCL, 8 patients", "result": "4 (50.0%) n (%)"},
      {"measurement": "CR, n (%)", "setting": "[1]; Tumor type FL, 20 patients", "result": "2 (10.0%) n (%)"},
      {"measurement": "ORR, n (%)", "setting": "[1]; Tumor type FL, 20 patients", "result": "15 (75%) n (%)"},
      {"measurement": "CR, n (%)", "setting": "[1]; [8]", "result": "4 (9.3%) n (%)"},
      {"measurement": "ORR, n (%)", "setting": "[1]; [8]", "result": "28 (65%) n (%)"},
      {"measurement": "ORR, n (%)", "setting": "[1]; Tumor type MCL, 5 patients", "result": "5 (100%) n (%)"},
      {"measurement": "CR, n (%)", "setting": "[1]; Tumor type NHL, 41 patients", "result": "4 (9.8%) n (%)"},
      {"measurement": "ORR, n (%)", "setting": "[1]; Tumor type NHL, 41 patients", "result": "28 (68%) n (%)"},
      {"measurement": "Best efficacy", "setting": "[1]; all the two follicular lymphoma patients in the 20 mg/qd group", "result": "achieved PR"},
      {"measurement": "Best efficacy", "setting": "[1]; all the two mantle cell lymphoma patients, relapsed or refractory after BTK inhibitor treatment", "result": "achieved PR"},
      {"measurement": "ORR", "setting": "[1]; follicular lymphoma (FL), 10 mg/qd and higher-dose group (6/8)", "result": 75, "unit": "%"},
      {"measurement": "safety", "setting": "[1]; [9]", "result": "good safety"},
      {"measurement": "therapeutic effect on lymphoma", "setting": "[1]; [9]", "result": "good therapeutic effect"},
      {"measurement": "Change in lesion", "setting": "[1]; patient R1006, FL, 10 mg/qd, administration cycle C5D28", "result": "−84.0", "unit": "%"},
      {"measurement": "Best efficacy", "setting": "[1]; [10]", "result": "Small SD"},
      {"measurement": "Change in lesion", "setting": "[1]; [10]", "result": "−37.5", "unit": "%"},
      {"measurement": "Best efficacy", "setting": "[1]; [11]", "result": "Small SD"},
      {"measurement": "Change in lesion", "setting": "[1]; [11]", "result": "−33.0", "unit": "%"},
      {"measurement": "Change in lesion", "setting": "[1]; patient R2006, DLBCL, 10 mg/qd, administration cycle C3D28", "result": "−100.0", "unit": "%"},
      {"measurement": "Best efficacy", "setting": "[1]; [12]", "result": "Small SD"},
      {"measurement": "Change in lesion", "setting": "[1]; [12]", "result": "−42.0", "unit": "%"},
      {"measurement": "Change in lesion", "setting": "[1]; patient R2009, MCL, 10 mg/bid, administration cycle C3D28", "result": "−71.0", "unit": "%"},
      {"measurement": "Change in lesion", "setting": "[1]; patient R2011, FL, 20 mg/bid, administration cycle C1D14", "result": "−94.0", "unit": "%"},
      {"measurement": "safety in treatment", "setting": "[2]; 20 mg orally once daily", "result": "good safety"},
      {"measurement": "therapeutic effect on mantle cell lymphoma", "setting": "[2]; 20 mg orally once daily", "result": "good therapeutic effect"},
      {"measurement": "CR", "setting": "[2]; 21 patients with mantle cell lymphoma, 20 mg orally once daily (2 cases)", "result": 9.5, "unit": "%"},
      {"measurement": "ORR", "setting": "[2]; 21 patients with mantle cell lymphoma, 20 mg orally once daily (16 cases)", "result": 76, "unit": "%"},
      {"measurement": "patients reached ORR", "setting": "[2]; of the 7 patients previously treated with a BTK inhibitor", "result": "Five"},
      {"measurement": "safety in treatment", "setting": "[3]; 20 mg orally once daily", "result": "good safety"},
      {"measurement": "therapeutic effect on follicular lymphoma", "setting": "[3]; 20 mg orally once daily", "result": "good therapeutic effect"},
      {"measurement": "CR", "setting": "[3]; 20 patients with follicular lymphoma, 20 mg orally once daily (2 cases)", "result": 10.0, "unit": "%"},
      {"measurement": "ORR", "setting": "[3]; 20 patients with follicular lymphoma, 20 mg orally once daily (14 cases)", "result": 70, "unit": "%"},
      {"measurement": "safety in treatment", "setting": "[4]", "result": "good safety"},
      {"measurement": "therapeutic effect on diffuse large B-cell lymphoma", "setting": "[4]", "result": "good therapeutic effect"},
      {"measurement": "safety in treatment", "setting": "[5]", "result": "good safety"},
      {"measurement": "treatment effect on small lymphocytic lymphoma or chronic lymphocytic leukemia", "setting": "[5]", "result": "good treatment effect"}
    ]}
  ]
}
